Assay results taken from patent US8106055B2, “Substituted amide compounds” (Gruenenthal GmbH, priority 2007, dated 2012).

Legend:
[1] = biological target: T1, serotonin (5-HT) reuptake (Rattus norvegicus, UniProt P31652); test: Inhibition of serotonin (5HT) reuptake in synaptosomes from rat brain; type: biochemical; conditions: test concentration of 10 μM; for inhibition at 10 µM: read-out: 5-HT (inhibition of reuptake of serotonin, % inhibition)
T1 construct: synaptosomes are freshly isolated from areas of the rat brain; from tissue; host or cells: rat brain synaptosomes (P2 fraction)
Method in brief: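 Compounds screened at 10 μM and reported as percent inhibition of serotonin uptake. Uptake measured in a freshly prepared P2 synaptosomal fraction from rat brain.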

[2] = biological target: T2, human bradykinin 1 receptor (B1R) (Homo sapiens, UniProt P46663); test: Functional investigation on the human bradykinin 1 receptor (B1R), Ca2+ FLIPR assay in CHO K1 hB1R cells; type: cell-based; conditions: test substance 10 μM, Ca2+ FLIPR, CHO K1 hB1R cells; for inhibition at 10 µM: CHO-K1, B1R antagonism human, read-out: B1R Ant. h [10 μM] % Inhibition; for B1R Ant. h [10 μM] % Inhibition: B1R antagonism human
T2 construct: expressed in transfected cells; host or cells: CHO K1 cells
T2 sequence (P46663 1-353): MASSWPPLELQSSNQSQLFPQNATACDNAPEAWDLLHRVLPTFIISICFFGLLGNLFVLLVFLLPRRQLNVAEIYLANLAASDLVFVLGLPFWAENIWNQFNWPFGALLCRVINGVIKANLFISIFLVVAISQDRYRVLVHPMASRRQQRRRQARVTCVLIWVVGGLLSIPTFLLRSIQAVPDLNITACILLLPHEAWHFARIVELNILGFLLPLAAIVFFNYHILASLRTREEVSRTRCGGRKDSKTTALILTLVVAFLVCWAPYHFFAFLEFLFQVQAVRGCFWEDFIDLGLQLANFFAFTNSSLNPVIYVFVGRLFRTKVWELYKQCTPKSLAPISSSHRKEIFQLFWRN
Method in brief: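 Fluo-4 Ca2+ readout, peak fluorescence. Stable CHO K1 transfectants; compound pre-incubated 10-20 min, then EC80 agonist—Lys-Des-Arg9-BK for hB1R, Des-Arg9-BK for rB1R. % inhibition vs maximal inhibition; IC50 from multiple concentrations, duplicate/triplicate, ≥2 independent runs.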

T1 sequence (P31652 whole entry): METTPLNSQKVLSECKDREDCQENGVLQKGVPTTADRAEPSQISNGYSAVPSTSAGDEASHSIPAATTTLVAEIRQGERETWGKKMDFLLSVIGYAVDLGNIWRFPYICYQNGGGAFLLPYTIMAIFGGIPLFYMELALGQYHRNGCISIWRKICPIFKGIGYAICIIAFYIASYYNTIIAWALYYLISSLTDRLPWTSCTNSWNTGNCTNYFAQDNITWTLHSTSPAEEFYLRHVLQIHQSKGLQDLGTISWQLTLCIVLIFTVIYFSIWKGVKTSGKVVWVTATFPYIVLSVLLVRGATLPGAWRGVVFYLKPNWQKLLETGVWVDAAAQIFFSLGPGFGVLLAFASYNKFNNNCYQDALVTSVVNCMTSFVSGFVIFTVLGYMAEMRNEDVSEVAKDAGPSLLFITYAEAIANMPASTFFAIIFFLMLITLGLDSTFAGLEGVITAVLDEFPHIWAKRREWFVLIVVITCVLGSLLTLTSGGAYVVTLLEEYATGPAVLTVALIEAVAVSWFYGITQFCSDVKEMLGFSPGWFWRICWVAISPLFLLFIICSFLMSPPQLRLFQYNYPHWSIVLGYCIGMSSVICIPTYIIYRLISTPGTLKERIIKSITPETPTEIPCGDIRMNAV

CN(C)C(c1ccccc1)C1CCC(CNC(=O)COCCN(C)S(=O)(=O)c2ccc(F)cc2)CC1 (centres unmarked) [Example 112, N-((4-((dimethylamino)(phenyl)methyl)cyclohexyl)methyl)-2-(2-(4-fluoro-N-methylphenylsulfonamido)ethoxy)acetamide]
inhibition at 10 µM [1]: 85% | inhibition at 10 µM [2]: -1%

CN(C)C(c1ccccc1)C1CCC(CNC(=O)COC2CCN(S(=O)(=O)c3cccc(C(F)(F)F)c3)C2)CC1 (centres unmarked) [Example 113, N-((4-((dimethylamino)(phenyl)methyl)cyclohexyl)methyl)-2-(1-(3-(trifluoromethyl)phenylsulfonyl)pyrrolidin-3-yloxy)acetamide]
inhibition at 10 µM [1]: 88% | inhibition at 10 µM [2]: -1%

CN(C)C(c1ccccc1)C1CCC(CNC(=O)COC2CCCN(S(=O)(=O)c3ccccc3)C2)CC1 (centres unmarked) [Example 114, N-((4-((dimethylamino)(phenyl)methyl)cyclohexyl)methyl)-2-(1-(phenylsulfonyl)piperidin-3-yloxy)acetamide]
inhibition at 10 µM [1]: 96% | inhibition at 10 µM [2]: -17%

CN(C)C(c1cccs1)C1CCC(CCNC(=O)COCC2CCCN(S(=O)(=O)c3ccccc3)C2)CC1 (centres unmarked) [Example 115, N-(2-(4-((dimethylamino)(thiophen-2-yl)methyl)cyclohexyl)ethyl)-2-((1-(phenylsulfonyl)piperidin-3-yl)methoxy)acetamide]
inhibition at 10 µM [1]: 97% | inhibition at 10 µM [2]: 10%

CN(C)C(c1cccs1)C1CCC(CCNC(=O)COCCN(Cc2ccccc2)S(=O)(=O)c2ccccc2)CC1 (centres unmarked) [Example 116, 2-(2-(N-benzylphenylsulfonamido)ethoxy)-N-(2-(4-((dimethylamino)(thiophen-2-yl)methyl)cyclohexyl)ethyl)acetamide]
inhibition at 10 µM [1]: 97% | inhibition at 10 µM [2]: 28%

CCN(CCOCC(=O)NCC1CCC(C(c2cccc(F)c2)N(C)C)CC1)S(=O)(=O)c1c(C)cc(OC)c(C)c1C (centres unmarked) [Example 117, N-((4-((dimethylamino)(3-fluorophenyl)methyl)cyclohexyl)methyl)-2-(2-(N-ethyl-4-methoxy-2,3,6-trimethylphenylsulfonamido)ethoxy)acetamide]
inhibition at 10 µM [1]: 94% | inhibition at 10 µM [2]: 76%

COc1cc(C)c(S(=O)(=O)N2CCC(CCOCC(=O)NC3CCC(C(c4cccc(F)c4)N(C)C)CC3)CC2)c(C)c1C (centres unmarked) [Example 118, N-(4-((dimethylamino)(3-fluorophenyl)methyl)cyclohexyl)-2-(2-(1-(4-methoxy-2,3,6-trimethylphenylsulfonyl)piperidin-4-yl)ethoxy)acetamide]
inhibition at 10 µM [1]: 92% | inhibition at 10 µM [2]: 23%

CN(C)C(c1cccc(F)c1)C1CCC(CNC(=O)COCC2CCCN2S(=O)(=O)c2ccc(Cl)c(Cl)c2)CC1 (centres unmarked) [Example 119, 2-((1-(3,4-dichlorophenylsulfonyl)pyrrolidin-2-yl)methoxy)-N-((4-((dimethylamino)(3-fluorophenyl)methyl)cyclohexyl)methyl)acetamide]
inhibition at 10 µM [1]: 96% | inhibition at 10 µM [2]: 67%

COc1ccc(S(=O)(=O)N2CCCCC2COCC(=O)NCCC2CCC(C(c3cccs3)N(C)C)CC2)cc1OC (centres unmarked) [Example 120, 2-((1-(3,4-dimethoxyphenylsulfonyl)piperidin-2-yl)methoxy)-N-(2-(4-((dimethylamino)(thiophen-2-yl)methyl)cyclohexyl)ethyl)acetamide]
inhibition at 10 µM [1]: 91% | inhibition at 10 µM [2]: -12%

Cc1ccc(S(=O)(=O)N2CCC(OCC(=O)NCC3CCC(C(c4ccccc4)N(C)C)CC3)C2)cc1 (centres unmarked) [Example 125, N-((4-((dimethylamino)(phenyl)methyl)cyclohexyl)methyl)-2-(1-tosylpyrrolidin-3-yloxy)acetamide]
inhibition at 10 µM [1]: 91% | inhibition at 10 µM [2]: 26%

CN(C)C(c1cccc(F)c1)C1CCC(CCNC(=O)COCCN(C)S(=O)(=O)c2ccc(Cl)cc2Cl)CC1 (centres unmarked) [Example 126, 2-(2-(2,4-dichloro-N-methylphenylsulfonamido)ethoxy)-N-(2-(4-((dimethylamino)(3-fluorophenyl)methyl)cyclohexyl)ethyl)acetamide]
inhibition at 10 µM [1]: 86% | inhibition at 10 µM [2]: 103%

COc1ccc(S(=O)(=O)N(C)CCOCC(=O)NCC2CCC(C(c3cccs3)N(C)C)CC2)cc1OC (centres unmarked) [Example 127, 2-(2-(3,4-Dimethoxy-N-methylphenylsulfonamido)ethoxy)-N-((4-((dimethylamino)(thiophen-2-yl)methyl)cyclohexyl)methyl)acetamide]
inhibition at 10 µM [1]: 79% | inhibition at 10 µM [2]: -13%

COc1ccc(S(=O)(=O)N(C)CCOCC(=O)NCCC2CCC(C(c3cccs3)N(C)C)CC2)cc1 (centres unmarked) [Example 128, N-(2-(4-((dimethylamino)(thiophen-2-yl)methyl)cyclohexyl)ethyl)-2-(2-(4-methoxy-N-methylphenylsulfonamido)ethoxy)acetamide]
inhibition at 10 µM [1]: 83% | inhibition at 10 µM [2]: 28%

COc1cc(C)c(S(=O)(=O)N2CCCC(OCC(=O)NCCC3CCC(C(c4cccs4)N(C)C)CC3)C2)c(C)c1C (centres unmarked) [Example 130, N-(2-(4-((dimethylamino)(thiophen-2-yl)methyl)cyclohexyl)ethyl)-2-(1-(4-methoxy-2,3,6-trimethylphenylsulfonyl)piperidin-3-yloxy)acetamide]
inhibition at 10 µM [1]: 95% | inhibition at 10 µM [2]: 30%

COc1cc(C)c(S(=O)(=O)N2CCC(CCOCC(=O)NCC3CCC(C(c4cccs4)N(C)C)CC3)CC2)c(C)c1C (centres unmarked) [Example 131, N-((4-((dimethylamino)(thiophen-2-yl)methyl)cyclohexyl)methyl)-2-(2-(1-(4-methoxy-2,3,6-trimethylphenylsulfonyl)piperidin-4-yl)ethoxy)acetamide]
inhibition at 10 µM [1]: 91% | inhibition at 10 µM [2]: 15%

CN(C)C(c1cccc(F)c1)C1CCC(NC(=O)COC2CCCCC2N(C)S(=O)(=O)c2ccc(Cl)c(Cl)c2)CC1 (centres unmarked) [Example 132, 2-(2-(3,4-dichloro-N-methylphenylsulfonamido)cyclohexyloxy)-N-(4-((dimethylamino)(3-fluorophenyl)methyl)cyclohexyl)acetamide]
inhibition at 10 µM [1]: 83% | inhibition at 10 µM [2]: 40%

COc1ccc(S(=O)(=O)N2CCCCC2COCC(=O)NCC2CCC(C(c3cccs3)N(C)C)CC2)cc1OC (centres unmarked) [Example 133, 2-((1-(3,4-Dimethoxyphenylsulfonyl)piperidin-2-yl)methoxy)-N-((4-((dimethylamino)(thiophen-2-yl)methyl)cyclohexyl)methyl)acetamide]
inhibition at 10 µM [1]: 88% | inhibition at 10 µM [2]: -23%

CN(C)C(c1ccccc1)C1CCC(NC(=O)COCCN(C)S(=O)(=O)c2c(Cl)cccc2Cl)CC1 (centres unmarked) [Example 135, 2-(2-(2,6-dichloro-N-methylphenylsulfonamido)ethoxy)-N-(4-((dimethylamino)(phenyl)methyl)cyclohexyl)acetamide]
inhibition at 10 µM [1]: 83% | inhibition at 10 µM [2]: 79%

COc1ccc(S(=O)(=O)N2CCCCC2COCC(=O)NCC2CCC(C(CCc3ccccc3)N(C)C)CC2)c(OC)c1 (centres unmarked) [Example 420]
5-HT (inhibition of reuptake of serotonin, % inhibition) ([1]; 10 µM): 74% | B1R Ant. h [10 μM] % Inhibition [2]: −7%

CN(C)C(CCc1ccccc1)C1CCC(CNC(=O)COCCN(C)S(=O)(=O)c2c(Cl)cccc2Cl)CC1 (centres unmarked) [Example 476]
5-HT (inhibition of reuptake of serotonin, % inhibition) ([1]; 10 µM): 80% | B1R Ant. h [10 μM] % Inhibition [2]: 103%

COc1ccc(S(=O)(=O)N2CCCCC2COCC(=O)NCC2CCC(C(CCc3ccccc3)N(C)C)CC2)c(OC)c1 (centres unmarked) [Example 486]
5-HT (inhibition of reuptake of serotonin, % inhibition) ([1]; 10 µM): 73% | B1R Ant. h [10 μM] % Inhibition [2]: 28%

CN(C)C(c1cccc(F)c1)C1CCC(CCNC(=O)COCCC2CCN(S(=O)(=O)c3ccccc3)CC2)CC1 (centres unmarked) [Example 543]
5-HT (inhibition of reuptake of serotonin, % inhibition) [1]: 76% | B1R Ant. h [10 μM] % Inhibition [2]: −31%

CN(C)C(CCc1ccccc1)C1CCC(CNC(=O)COCC2CCCN(S(=O)(=O)c3ccccc3)C2)CC1 (centres unmarked) [Example 544]
5-HT (inhibition of reuptake of serotonin, % inhibition) [1]: 92% | B1R Ant. h [10 μM] % Inhibition [2]: 22%

COc1cc(C)c(S(=O)(=O)N2CCC(OCC(=O)NCC3CCC(C(CCc4ccccc4)N(C)C)CC3)CC2)c(C)c1C (centres unmarked) [Example 546]
5-HT (inhibition of reuptake of serotonin, % inhibition) [1]: 91% | B1R Ant. h [10 μM] % Inhibition [2]: 34%

COc1cc(C)c(S(=O)(=O)N(CCOCC(=O)NCCC2CCC(C(c3ccc(F)cc3)N(C)C)CC2)Cc2ccccc2)c(C)c1 (centres unmarked) [Example 547]
5-HT (inhibition of reuptake of serotonin, % inhibition) [1]: 90% | B1R Ant. h [10 μM] % Inhibition [2]: 76%

COc1ccc(S(=O)(=O)N(C)CCOCC(=O)NC2CCC(C(c3ccc(F)cc3)N(C)C)CC2)cc1OC (centres unmarked) [Example 548]
5-HT (inhibition of reuptake of serotonin, % inhibition) [1]: 99% | B1R Ant. h [10 μM] % Inhibition [2]: 6%

COc1ccc(S(=O)(=O)N(C)CCOCC(=O)NC2CCC(C(c3ccc(F)cc3)N(C)C)CC2)cc1 (centres unmarked) [Example 549]
5-HT (inhibition of reuptake of serotonin, % inhibition) [1]: 81% | B1R Ant. h [10 μM] % Inhibition [2]: 13%

COc1ccc(S(=O)(=O)N(C)CCOCC(=O)NCC2CCC(C(CCc3ccccc3)N(C)C)CC2)cc1 (centres unmarked) [Example 550]
5-HT (inhibition of reuptake of serotonin, % inhibition) [1]: 74% | B1R Ant. h [10 μM] % Inhibition [2]: 62%
